Experimental data from article PMC7400623, “Effect of lysine side chain length on histone lysine acetyltransferase catalysis” (Scientific Reports, 2020).

How the values were obtained:
[1] = biological target: T1, PCAF catalytic domain (Homo sapiens, UniProt Q92831); test: MALDI-TOF MS kinetics assay, PCAF; format: biochemical; conditions: for kcat^app / Km: PCAF catalytic domain 50 nM (2 µM for unnatural analogs), peptide 1,050–0 µM, pH 7.4, 37 °C, MALDI-TOF MS, duplicates, value ± SD, SD; for kcat^app: AcCoA 100 µM (saturating), 50 mM HEPES, 0.1 mM EDTA, 0.01% TRITON-X; for Km: AcCoA 100 µM, read-out: Km^app; for decrease (drop) of kcat/Km for PCAF compared to the natural lysine peptide: K14 series vs H3K14, K9 series vs H3K9; for decrease (drop) of kcat/Km for PCAF compared to the natural lysine peptide / kcat^app/Km^app: PCAF; for kcat^app/Km^app: same kinetics conditions
T1 construct: Human PCAF catalytic domain (residues 498–658 in pET16b vector); SNAP-tag; His-tag; made in house; host or cells: E. coli BL21(DE3)
T1 sequence (Q92831 498-658): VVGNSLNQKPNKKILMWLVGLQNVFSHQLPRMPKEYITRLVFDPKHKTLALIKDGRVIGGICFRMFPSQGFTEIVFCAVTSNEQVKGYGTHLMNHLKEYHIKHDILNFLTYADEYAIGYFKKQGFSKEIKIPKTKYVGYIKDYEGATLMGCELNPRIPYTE
From the text: (§1) Kinetic analysis of bi-substrate enzymes, such as KATs, is reckoned to be challenging and dependent on many factors. Firstly, given the nature of these enzymes, the binding of one of the two substrates directly influences the binding of the other (with a direct effect on the Michaelis–Menten parameter Km). […] Therefore, to obtain data that would allow us to directly compare the catalytic properties of the selected KATs towards our selection of histone peptides bearing lysine analogs with longer side chains, two strategies to standardize our kinetic evaluation were taken: i) all the experiments were carried out with the same saturating concentrations of AcCoA and ii) only KATs catalytic domains were employed in the study.
(§2) Histone peptides kinetics evaluation was carried out with a MALDI-TOF MS assay under steady-state conditions[57],[58]. Histone peptides (1,050–0 µM) were incubated with AcCoA (100 µM) and the reactions were started by the addition of the enzyme (MOF 570 nM, PCAF and GCN5 50 nM) in a final volume of 20 µL in kinetic buffer (50 mM HEPES, 0.1 mM EDTA, 0.01% TRITON-X, pH = 7.4). […] AcCoA stock solutions in milli-Q water were calibrated with a NanoDrop 2000 spectrophotometer (Thermo Scientific, Waltham, MA, USA), employing the characteristic molar extinction coefficient ε260nm = 16,400 M^−1 cm^−1. Reactions were incubated at 37 °C, shaken at 750 rpm and quenched with TFA 10% in milli-Q water at different time points, within linear production of acetylated peptides extrapolated from time-course plots. All reactions were aliquoted and mixed 1:2 with a solution of α-cyano-4-hydroxycinnamic acid (CHCCA) in 1:1 MQ and ACN (0.1% TFA) and loaded onto MTP 384 polished steel target to be analyzed by UltrafleXtreme-II tandem mass spectrometer (Bruker). The amount of acetylated peptide was calculated by integration of the product peak area and divided it by the amount of unacetylated peptide, taking in account all the ionic species, at any concentration points using the FlexAnalysis software. Kinetic values were extrapolated by fitting V0 values (µM of produced peptide per minutes) and histone peptide concentrations to the Michaelis–Menten equation using the GraphPad Prism 5 software. Kinetic experiments were carried out in duplicates and final values are reported as value ± SD.

[2] = biological target: T2, PCAF (KAT2B) (Homo sapiens, UniProt Q92831); test: MALDI-TOF MS enzymatic assay of PCAF-catalyzed acetylation of histone peptides; format: biochemical; conditions: 100 µM peptide, 300 µM AcCoA, pH 8.0, 37 °C; for acetylation (conversion to acetylated peptide) by PCAF: after 3 h, 2 µM PCAF, 50 mM Hepes, 0.1 mM EDTA, 1 mM DTT
T2 construct: Human PCAF catalytic domain (residues 498–658 in pET16b vector); SNAP-tag; His-tag; made in house; host or cells: E. coli BL21(DE3)
T2 sequence (Q92831 498-658): as above
Experimental: (§3) MALDI-TOF MS enzymatic assays were carried out to investigate KAT-catalyzed acetylation of synthetic histone peptides. The enzymatic activity of the recombinantly expressed human KATs was measured at different time points (2 µM KAT enzyme, 100 µM histone peptide, 300 µM AcCoA, buffer: 50 mM Hepes, 0.1 mM EDTA, 1 mM DTT, pH = 8.0, 37 °C, hereafter used as standard conditions) (Fig. 3b,c). […] As further control, H4 and H3 peptides containing stereochemically inverted D-lysine were synthesized.
(§4) The KAT enzymatic activity towards histone peptides was measured at different time points under standard conditions (2 µM KAT enzyme, 100 µM peptide, 300 µM AcCoA) in the reaction buffer (50 mM HEPES, 0.1 mM EDTA, 1 mM DTT, pH = 8.0). The reactions were carried out in a final volume of 50 µL and shaken up in a Thermomixer C at 750 rpm, at 37 °C. The reactions were quenched by the addition of TFA 10% in MilliQ water at different time points. All reactions were aliquoted and mixed 1:2 with a solution of α-Cyano-4-hydroxycinnamic acid (CHCCA) in 1:1 MQ and ACN (0.1% TFA) and loaded onto an MTP 384 polished steel target to be analyzed by a UltrafleXtreme-II tandem mass spectrometer (Bruker, Billerica, MA, USA).

[3] = biological target: T3, GCN5 catalytic domain (Homo sapiens, UniProt Q92830); test: MALDI-TOF MS kinetics assay, GCN5; format: biochemical; conditions: for decrease (drop) of kcat/Km for GCN5 compared to the natural lysine peptide: K14 series vs H3K14, K9 series vs H3K9; for decrease (drop) of kcat/Km for GCN5 compared to the natural lysine peptide / kcat^app/Km^app: GCN5; for kcat^app/Km^app: same kinetics conditions; for kcat^app / Km: GCN5 catalytic domain 50 nM (2 µM for unnatural analogs), peptide 1,050–0 µM, pH 7.4, 37 °C, MALDI-TOF MS, duplicates, value ± SD, SD; for kcat^app: AcCoA 100 µM (saturating), 50 mM HEPES, 0.1 mM EDTA, 0.01% TRITON-X; for Km: AcCoA 100 µM, read-out: Km^app
T3 construct: Human GCN5 catalytic domain (residues 497–662 in pET28a-LIC vector); His-tag; host or cells: E. coli BL21(DE3)
T3 sequence (Q92830 497-662): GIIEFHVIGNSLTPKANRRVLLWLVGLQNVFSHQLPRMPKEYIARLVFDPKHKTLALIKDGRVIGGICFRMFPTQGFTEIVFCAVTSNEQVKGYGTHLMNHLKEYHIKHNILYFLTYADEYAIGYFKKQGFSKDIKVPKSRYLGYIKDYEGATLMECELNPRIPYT
From the text: as §1, §2

[4] = biological target: T4, GCN5 (KAT2A) (Homo sapiens, UniProt Q92830); test: MALDI-TOF MS enzymatic assay of GCN5-catalyzed acetylation of histone peptides; format: biochemical; conditions: 300 µM AcCoA, pH 8.0, 37 °C; for acetylation (conversion to acetylated peptide) by GCN5: after 3 h, 2 µM GCN5, 100 µM peptide, 50 mM Hepes, 0.1 mM EDTA, 1 mM DTT
T4 construct: Human GCN5 catalytic domain (residues 497–662 in pET28a-LIC vector); His-tag; host or cells: E. coli BL21(DE3)
T4 sequence (Q92830 497-662): as above
Experimental: as §3, §4

[5] = biological target: Human GCN5 catalytic domain (residues 497-662) (human) (UniProt Q92830)
Chain of Human GCN5 catalytic domain (residues 497-662) (human) (Q92830 497-662): as above

[6] = biological target: Human PCAF catalytic domain (residues 498-658) (human) (UniProt Q92831)
Chain of Human PCAF catalytic domain (residues 498-658) (human) (Q92831 498-658): as the sequence (Q92831 498-658) above

[7] = biological target: Human PCAF catalytic domain (residues 498-658) (human) (UniProt Q92831); remark: listed apart in the source
[8] = biological target: Human GCN5 catalytic domain (residues 497-662) (human) (UniProt Q92830); remark: listed apart in the source

## TKQTARK Ac STGG h2K 14 APR [H3h2K14, 15-mer histone H3 peptide (K9ac) with h2K at position 14]
[1]
  kcat^app: 0.0083 ± 0.0017 s⁻¹
  Km: 606 ± 96 µM
  decrease (drop) of kcat/Km for PCAF compared to the natural lysine peptide: 625 fold
  kcat^app/Km^app: 13 M⁻¹ s⁻¹
[2]; MALDI-TOF MS
  acetylation (conversion to acetylated peptide) by PCAF: 55%
[3]
  decrease (drop) of kcat/Km for GCN5 compared to the natural lysine peptide: 890 fold
  kcat^app/Km^app: 6.7 M⁻¹ s⁻¹
  kcat^app: 0.00667 ± 0.0017 s⁻¹
  Km: 1050 µM
[4]; MALDI-TOF MS
  acetylation (conversion to acetylated peptide) by GCN5: 25%

## H3K*9 histone peptide containing Orn at position 9 (H3 residues 1-15, K14 acetylated)
[5]
  IC50 of inhibition of GCN5-catalyzed acetylation of the H3K9 peptide (single point, 100 µM of each peptide, 1 h, 37 °C, MALDI-TOF MS; residual activity greater than 50%): > 100 µM
[6]
  IC50 of inhibition of PCAF-catalyzed acetylation of the H3K9 peptide (single point, 100 µM of each peptide, 1 h, 37 °C, MALDI-TOF MS; residual activity greater than 50%): > 100 µM

## H3h2K9 histone peptide (H3 residues 1-15, K14 acetylated, h2K at position 9)
[7]
  Km^app of PCAF-catalyzed acetylation (MALDI-TOF MS kinetics, steady state, saturating AcCoA, 37 °C, pH 7.4): 179 μM

## H3K*14 histone peptide containing Dab at position 14 (H3 residues 3-17, K9 acetylated)
[5]
  IC50 of inhibition of GCN5-catalyzed acetylation of the H3K14 peptide (single point, 100 µM of each peptide, 1 h, 37 °C, MALDI-TOF MS; residual activity greater than 50%): > 100 µM
[6]
  IC50 of inhibition of PCAF-catalyzed acetylation of the H3K14 peptide (single point, 100 µM of each peptide, 1 h, 37 °C, MALDI-TOF MS; residual activity greater than 50%): > 100 µM

## H3K*9 histone peptide containing Dab at position 9 (H3 residues 1-15, K14 acetylated)
[5]
  IC50 of inhibition of GCN5-catalyzed acetylation of the H3K9 peptide (single point, 100 µM of each peptide, 1 h, 37 °C, MALDI-TOF MS; residual activity greater than 50%): > 100 µM
[6]
  IC50 of inhibition of PCAF-catalyzed acetylation of the H3K9 peptide (single point, 100 µM of each peptide, 1 h, 37 °C, MALDI-TOF MS; residual activity greater than 50%): > 100 µM

## H3K*14 histone peptide containing Orn at position 14 (H3 residues 3-17, K9 acetylated)
[5]
  IC50 of inhibition of GCN5-catalyzed acetylation of the H3K14 peptide (single point, 100 µM of each peptide, 1 h, 37 °C, MALDI-TOF MS; residual activity greater than 50%): > 100 µM
[6]
  IC50 of inhibition of PCAF-catalyzed acetylation of the H3K14 peptide (single point, 100 µM of each peptide, 1 h, 37 °C, MALDI-TOF MS; residual activity greater than 50%): > 100 µM

## ARTKQTAR h3K9STGGK Ac A [H3h3K9, 15-mer histone H3 peptide (K14ac) with h3K at position 9]
[2]; standard conditions: 2 µM PCAF, 3 h, MALDI-TOF MS
  substrate for PCAF-catalyzed acetylation (in words): No acetylation was observed within limits of detection
[4]; standard conditions: 2 µM GCN5, 100 µM peptide, 3 h, MALDI-TOF MS
  substrate for GCN5-catalyzed acetylation (in words): No acetylation was observed within limits of detection

## H3hK14 histone peptide (H3 residues 3-17, K9 acetylated, hLys at position 14)
[8]
  Km^app of GCN5-catalyzed acetylation (MALDI-TOF MS kinetics, steady state, saturating AcCoA, 37 °C, pH 7.4): 878 μM
[7]
  Km^app of PCAF-catalyzed acetylation (MALDI-TOF MS kinetics, steady state, saturating AcCoA, 37 °C, pH 7.4): 488 μM

## H3K*14 histone peptide containing h4K at position 14 (H3 residues 3-17, K9 acetylated)
[5]
  IC50 of inhibition of GCN5-catalyzed acetylation of the H3K14 peptide (single point, 100 µM of each peptide, 1 h, 37 °C, MALDI-TOF MS; residual activity greater than 50%): > 100 µM
[6]
  IC50 of inhibition of PCAF-catalyzed acetylation of the H3K14 peptide (single point, 100 µM of each peptide, 1 h, 37 °C, MALDI-TOF MS; residual activity greater than 50%): > 100 µM

## TKQTARK Ac STGG K14 APR [H3K14, 15-mer H3 peptide, residues 3–17, synthetically acetylated K9, reference compound]
[1]
  kcat^app: 6.07 ± 0.02 s⁻¹
  Km: 727 ± 95 µM
  kcat^app/Km^app: 8330 M⁻¹ s⁻¹
[2]; standard conditions: 2 µM PCAF
  time to quantitative acetylation by PCAF: 15 min
[3]
  kcat^app/Km^app: 5930 M⁻¹ s⁻¹
  kcat^app: 5.9 ± 0.035 s⁻¹
  Km: 995 ± 198 µM
[4]; standard conditions: 2 µM GCN5, 100 µM peptide
  time to quantitative acetylation by GCN5: 15 min

## H3K14 histone peptide (H3 residues 3-17, K9 acetylated)
[8]
  Km^app of GCN5-catalyzed acetylation (MALDI-TOF MS kinetics, steady state, saturating AcCoA, 37 °C, pH 7.4): 995 μM
[7]
  Km^app of PCAF-catalyzed acetylation (MALDI-TOF MS kinetics, steady state, saturating AcCoA, 37 °C, pH 7.4): 727 μM

## TKQTARK Ac STGG hK 14 APR [H3hK14, 15-mer histone H3 peptide (K9ac) with hLys at position 14]
[1]
  kcat^app: 0.0155 ± 0.0033 s⁻¹
  Km: 488 ± 98 µM
  decrease (drop) of kcat/Km for PCAF compared to the natural lysine peptide: 263 fold
  kcat^app/Km^app: 31.7 M⁻¹ s⁻¹
[2]; MALDI-TOF MS
  acetylation (conversion to acetylated peptide) by PCAF: 83%
[3]
  decrease (drop) of kcat/Km for GCN5 compared to the natural lysine peptide: 354 fold
  kcat^app/Km^app: 16.7 M⁻¹ s⁻¹
  kcat^app: 0.0145 ± 0.0017 s⁻¹
  Km: 878 ± 157 µM
[4]; MALDI-TOF MS
  acetylation (conversion to acetylated peptide) by GCN5: 62%

## H3K*9 histone peptide containing h4K at position 9 (H3 residues 1-15, K14 acetylated)
[5]
  IC50 of inhibition of GCN5-catalyzed acetylation of the H3K9 peptide (single point, 100 µM of each peptide, 1 h, 37 °C, MALDI-TOF MS; residual activity greater than 50%): > 100 µM
[6]
  IC50 of inhibition of PCAF-catalyzed acetylation of the H3K9 peptide (single point, 100 µM of each peptide, 1 h, 37 °C, MALDI-TOF MS; residual activity greater than 50%): > 100 µM

## H3h2K14 histone peptide (H3 residues 3-17, K9 acetylated, h2K at position 14)
[8]
  Km^app of GCN5-catalyzed acetylation (MALDI-TOF MS kinetics, steady state, saturating AcCoA, 37 °C, pH 7.4): 1050 μM
[7]
  Km^app of PCAF-catalyzed acetylation (MALDI-TOF MS kinetics, steady state, saturating AcCoA, 37 °C, pH 7.4): 606 μM
